# Data published in PMC7235863, “Benzamide Derivatives Targeting the Cell Division Protein FtsZ: Modifications of the Linker and the Benzodioxane Scaffold and Their Effects on Antimicrobial Activity” (Antibiotics, 2020).
# Read-outs that look alike come from different tables or passages of the source.
# How the values were obtained:
# [1] = test system: Methicillin Sensitive S. aureus; details: cited from earlier work
# S. aureus ATCC 43300 = assay: Transmission electron microscopy of septum formation; type: cell-based, Staphylococcus aureus; details: MRSA cultured overnight; 1 at 1 μg/mL, DFNB at 0.25 μg/mL
# Description: After having assessed the antimicrobial profile of this class of derivatives, we chose 1 to be further analyzed by transmission electron microscopy (TEM), in order to evaluate any morphological changes in septum formation, as done before as a simple FtsZ target validation assay. We cultured S. aureus ATCC 43300 alone or in the presence of 1 and 2,6-difluorononyloxybenzamide (DFNB) as a reference FtsZ inhibitor (positive control). […] These are the typical effects of the inhibition of FtsZ assembly and consequently of the block of bacterial cell division.
# S. aureus ATCC 43300 (10^9 cells/mL) were cultured in the presence of 1 and DFNB (positive control), at the same concentrations used for optical microscopy and, after 16 h incubation at 37 °C, the cells were harvested and processed for transmission electron microscopy, as already described. Untreated S. aureus was used as negative control. After centrifugation at 3100× g for 5 min at room temperature, pelleted bacteria were fixed in 2.5% glutaraldehyde (Polysciences, Warrington, PA) in 0.1 M Na cacodylate buffer, pH 7.4, for 1 h at 4 °C, rinsed twice and post-fixed in Na cacodylate-buffered 1% OsO4 for 1 h at 4 °C. The samples were dehydrated through a series of graded ethanol solutions and propylene oxide and embedded in Poly/Bed 812 resin mixture. […]
# MDRSA 12.1 = assay: Broth microdilution MIC, MDRSA 12.1; type: cell-based, Staphylococcus aureus
# Procedure: (§1) Antimicrobial activity of 1–8 was evaluated on both Gram-positive (Table 3) and Gram-negative (Table 4) species. As a continuation of our previous studies, considering the Gram-positive S. aureus, we chose a methicillin-sensitive S. aureus (MSSA, ATCC 29213), a methicillin-resistant S. aureus (MRSA, ATCC 43300) and two clinical isolates of S. aureus showing multi-drug resistance (MDRSA).
# (§2) Antibacterial activities of compounds were determined by the broth microdilution method against MDRSA 11.7, MDRSA 12.1 and E. coli N43 following the European Committee on Antimicrobial Susceptibility Testing (EUCAST) recommendations and Clinical and Laboratory Standards Institute (CLSI) guidelines. Strains MDRSA ST-11.7 and ST-12.1 were obtained through the interlaboratory control organized by the EU Reference Laboratory—Antimicrobial Resistance. Only data on their resistance to antibiotics are known, but other data are not available.
# (§3) Bacterial suspension of specific bacterial strain equivalent to 0.5 McFarland turbidity standard was diluted with cation-adjusted Mueller Hinton broth with TES (Thermo Fisher Scientific), to obtain a final inoculum of 10^5 CFU/mL. Compounds dissolved in DMSO and inoculum were mixed together and incubated for 20 h at 37 °C. After incubation, the minimal inhibitory concentration (MIC) values were determined by visual inspection as the lowest dilution of compounds showing no turbidity. Tetracycline was used as a positive control on every assay plate.
# E. coli N43 [2] = assay: Broth microdilution MIC, efflux-defective E. coli N43; type: cell-based, Escherichia coli
# Procedure: (§4) We thus tested 1–8 and III initially on the reference sensitive E. coli ATCC 25922 and on the extended-spectrum of beta-lactamase-positive (ESBL) E. coli, as Gram-negative bacteria. Moreover, in order to evaluate the susceptibility of this series of compounds to the efflux pump AcrAB, we employed also the above-mentioned E. coli N43, which is the knockout of the AcrAB cell membrane pump.
# as §2, §3
# MSSA ATCC 29213 = assay: MIC/MBC determination in LB broth, MSSA; type: cell-based, Staphylococcus aureus; details: for MBC / MBC/MIC / MIC: MSSA ATCC 29213
# Procedure: (§5) Normal human lung fibroblasts (MRC-5) were grown in Dulbecco’s modified Eagle’s medium (DMEM) supplemented with 10% calf serum, 100 U/mL penicillin and […] streptomycin in an incubator at 5% CO2 atmosphere and 37 °C. The Gram-positive Staphylococcus aureus (methicillin-sensitive, MSSA ATCC 29213, and methicillin-resistant, MRSA ATCC 43300) and the Gram-negative Escherichia coli (ESBL, extended-spectrum beta-lactamase-positive) bacterial cells were grown in Luria-Bertani broth (LB) at 37 °C under constant shaking at 300 rpm.
# (§6) The antibacterial activity was tested on both a methicillin-sensitive and a methicillin-resistant S. aureus strain, and an ESBL E. coli clinical isolate. All the compounds were dissolved at the final concentration of 20 mg/mL in dimethyl sulfoxide (DMSO) and serially diluted in LB. Fresh cell cultures were used at 10^5 cells/mL in a final volume of 2 mL. Each bacterial sample was grown with different compound concentrations that ranged from 100 to 0.1 μg/mL. […] To determine the MBC, the bacteria were then washed three times with LB, centrifuged at 900× g for 10 min at 4 °C, and the pellet resuspended in fresh LB. After overnight incubation at 37 °C, the absence of growth was confirmed by OD measurement. The presence of antibacterial activity, at any concentration tested, was established for values of absorbance < 0.1 OD600. All tests were performed in quadruplicate and for each series of experiments, both positive (no compounds) and negative (no bacteria) controls were included.
# E. coli ATCC 25922 [3] = assay: MIC on reference sensitive E. coli; type: cell-based, Escherichia coli
# Description: as §4
# ESBL E. coli [4] = assay: MIC in LB broth, ESBL E. coli clinical isolate; type: cell-based, Escherichia coli
# Procedure: as §4, §5, §6
# MRSA ATCC 43300 = assay: MIC/MBC determination in LB broth, MRSA; type: cell-based, Staphylococcus aureus
# Procedure: as §5, §6
# MDRSA 11.7 = assay: Broth microdilution MIC, MDRSA 11.7; type: cell-based, Staphylococcus aureus
# Procedure: as §1, §2, §3
# MRC-5 cells = assay: MTT cytotoxicity assay; type: cell-based, human; details: MRC-5, concentration reducing cell viability by 90%, 24-h incubation
# Procedure: The compounds showing the most promising activities vs. MRSA were also assessed for their cytotoxicity on human MRC-5 cells. TD90, the concentration (µg/mL) able to reduce by 90% the viability of these cells, was determined together with the therapeutic index (TI), expressed as the ratio between TD90 and MBC values.
# as §5
# Compounds showing an antibacterial activity at a concentration lower than 10 μg/mL were serially diluted in DMEM and tested on MRC-5 cells by the MTT cytotoxicity assay (Sigma, St Louis, MO, USA). Cells (10^4 cells/well) were tested in a 96-well plate, in quadruplicate, using serially two-fold-diluted concentrations of the compound in 100 μL DMEM medium. After a 24-h incubation, the compound was removed, and the cells were overlaid with 1 mg/mL MTT in 100 μL serum-free DMEM for 3 h at 37 °C. The MTT solution was then replaced with DMSO for 10 min, and the absorbance was measured at 570 nm. The percentage of cytotoxicity was calculated by the formula [100 − (sample OD/untreated cells OD) × 100]. The compound concentration reducing cell viability by 90% was defined as the TD90 cytotoxic dose. The “therapeutic index” (TI) was also determined and defined as the ratio between TD90 and the MBC values.
# Sa cells = test system: Sa cells; set-up: method as in PMID 31750973; details: Sa cells incubated with the compounds ref 12; cited from earlier work
# E. coli N43 [5] = test system: E. coli N43; set-up: method as in PMID 31750973; details: E. coli N43 (AcrAB knockout); in-house reference compounds ref 12; cited from earlier work
# E. coli ATCC 25922 [6] = test system: E. coli ATCC 25922; set-up: method as in PMID 31750973; details: in-house reference compounds ref 12; cited from earlier work
# E. coli AcrAB– = details: ref 10 (Z2, Z3), 11 (TXY436), 12 (I, II); cited from earlier work
# ESBL E. coli [7] = test system: ESBL E. coli; set-up: method as in PMID 31750973; details: in-house reference compounds ref 12; cited from earlier work
# [8] = Staphylococcus aureus, read-out: MIC
# [9] = Staphylococcus aureus, read-out: MBC
# [10] = Escherichia coli, read-out: MIC
Molecule,MBC/MIC (MSSA ATCC 29213),MBC/MIC (MRSA ATCC 43300),MIC (MDRSA 12.1; [8]),"MIC (E. coli N43 [2]; Escherichia coli, N43)",MBC (MSSA ATCC 29213; [9]),MIC (MSSA ATCC 29213; [8]),"MIC (E. coli ATCC 25922 [3]; Escherichia coli, ATCC25922)",MIC (ESBL E. coli [4]; [10]),MBC (MRSA ATCC 43300; [9]),MIC (MRSA ATCC 43300; [8]),MIC (MDRSA 11.7; [8]),also measured
NC(=O)c1c(F)ccc(OCC2COc3ccccc3C2)c1F (stereo not shown) [V],–,–,–,–,–,–,–,–,–,–,–,MIC vs. MSSA ([1]; chromanes ref 22): 100 µg/mL
"CCCCCCCCCOc1ccc(F)c(C(N)=O)c1F [DFNB, 2,6-difluorononyloxybenzamide, reference compound]",–,–,–,–,–,–,–,–,–,–,–,Morphological changes in septum formation (TEM) (S. aureus ATCC 43300): strong alterations in the septum formation and bacterial desegregation
"3-(1,4-benzodithiane-2-yl)-2,6-difluorobenzamide [Compound 5]",2,2,–,–,–,–,–,–,–,–,–,MIC (MDRSA 12.1): 8 µg/mL; MIC (E. coli N43 [2]; E. coli N43 (AcrAB knockout)): >128 µg/mL; MBC (MSSA ATCC 29213): 10 µg/mL; MIC (MSSA ATCC 29213): 5 µg/mL; MIC (E. coli ATCC 25922 [3]; E. coli ATCC 25922): >100 µg/mL; MIC (ESBL E. coli [4]): >100 µg/mL; MBC (MRSA ATCC 43300): 10 µg/mL; MIC (MRSA ATCC 43300): 5 µg/mL; MIC (MDRSA 11.7): 8 µg/mL; TD90 (MRC-5 cells): 200 µg/mL
"NC(=O)c1c(F)ccc(OCC2COc3ccccc3O2)c1F (stereo not shown) [III, reference compound]",16,16,8 µg/mL,> 128 µg/mL,80 µg/mL,5 µg/mL,> 100 µg/mL,> 100 µg/mL,80 µg/mL,5 µg/mL,16 µg/mL,"MBC/MIC ratios (MSSA ATCC 29213; S. aureus, as summarised in the text from Table 3): 16"
Cc1nc(-c2ccc3c(c2)OC(COc2ccc(F)c(C(N)=O)c2F)CO3)no1 (stereo not shown) [II],–,–,–,–,–,–,–,–,–,–,–,"MIC ([1]; Methicillin Sensitive S. aureus, ref 10 (Z2, Z3), 11 (TXY436), 12 (I, II)): 0.6 µg/mL; Morphometric analysis by TEM (Sa cells): significant elongation in cellular dimension, bacterial swelling and cell desegregation; MIC (E. coli N43 [5]): 16 µg/mL; MIC (E. coli ATCC 25922 [6]): >100 µg/mL; MIC (E. coli AcrAB–): 16 µg/mL; MIC (ESBL E. coli [7]): >100 µg/mL"
NC(=O)c1c(F)ccc(OCCCC2COc3ccccc3O2)c1F (stereo not shown) [Compound 8],10,10,16 µg/mL,> 128 µg/mL,100 µg/mL,10 µg/mL,> 100 µg/mL,> 100 µg/mL,100 µg/mL,10 µg/mL,32 µg/mL,–
NC(=O)c1c(F)ccc(OCCC2COc3ccccc3O2)c1F (stereo not shown) [Compound 7],1,1,4 µg/mL,8 µg/mL,5 µg/mL,5 µg/mL,> 100 µg/mL,> 100 µg/mL,5 µg/mL,5 µg/mL,4 µg/mL,TD90 (MRC-5 cells): 380 µg/mL
